US7341991B2, “Inhibitors of amyloid precursor protein processing” (Posco, priority 2004, dated 2008)
Entries after “also recorded” stand apart in the source; their conditions may differ. Primed or numbered codes have the meaning given here. Where no end group is shown, it is not given here. [ ]: non-standard residue; d: D form. FITC′ = fluorescein isothiocyanate label; Ahx = NCCCCCC(=O)O

Columns and labels:
[1] = tested on: Aβ production in HEK 293-APP cells; test: Measurement of Aβ level in culture media (Aβ1-40 immunoassay); format: cell-based, human; settings: HEK293-APP cells
Protocol: Human embryonic kidney (HEK) 293 cells stably transformed with the gene for APP695 (HEK 293-APP) were used for studies on the inhibitory activity of HC peptides. HEK 293-APP cells were generously supplied by Dr. T W Kim (Columbia University, NY, USA). HEK 293-APP cells were cultured in Dulbecco's Modified Eagle's Medium (DMEM) (Invitrogen, CA, USA) with 10% fetal bovine serum (HyClone, UT, USA) and 300 μg/ml of geneticin (Invitrogen, CA, USA) in a humidified atmosphere of 5% CO2, 95% air at 37° C. Cells were subcultured after trypsinization, and the medium was changed every 2-3 days.
The culture media from the peptide-treated cells (see above) was harvested and centrifuged at 3500×g for 10 min. Amount of Aβ in the supernatant was determined with human Aβ1-40 immunoassay kits (Signal Select™, BioSource, CA, USA) according to the instruction provided by the company.

[2] = tested on: cleavage of Substrate M by rhBACE (recombinant human β-secretase); test: Fluorometric (FRET) assay for cleavage of F-Substrate M by β-secretase; format: biochemical; settings: for inhibition of cleavage of Substrate M by β-secretase: in vitro; for inhibitory activity group on Substrate M cleavage: tested at various concentrations (FIG. 8); for inhibitory activity of deletion peptides on cleavage of Substrate M: 10 inhibitor/substrate ratio, Substrate M 50 μM
Text: This assay system utilizes fluorescence resonance energy transfer (FRET) technology. Substrate M was synthesized with two fluorophores, a fluorescent donor and a proprietary quenching acceptor (purchased from a commercial source, R&D Systems). […] Upon cleavage of substrate by β-secretase, the fluorophore is separated from the quenching group, restoring the full fluorescence yield of donor.
Substrate labeled with fluorophores will be called F-Substrate M (R&D Systems). Recombinant human β-secretase will be called rhBACE (recombinant human β-site APP cleavage enzyme) (purchased from R&D systems).
[…] Cleavage by rhBACE was detected by reading emitted fluorescence level.
In this assay system, fluorescence resonance energy transfer (FRET) technology was utilized. […] After pre-incubation, substrate and HC peptide mixture in assay buffer was transferred to FluoroNunc™ 96 well white plate (Nunc, Roskilde, Denmark), and rhBACE1 (70 nM) was added. Time-dependent emission of fluorescence (excitation at 320 nm, emission at 405 nm) was monitored in a Molecular Devices SpectraMax Gemini EM fluorescence reader (CA, USA) for 1 h at 37° C. All assays were carried out in duplicate.

[3] = tested on: cleavage of APP by BACE1 (CTFβ) in HEK 293-APP cells; test: Level of CTFβ in treated cells (immunoblot, 6E10); format: cell-based, human; settings: HEK293-APP cells; for accumulation of cleavage product CTFβ: 9 h
Protocol: When the confluency of the cells reached 90%, the cells were washed with PBS once, and HC peptide in serum free DMEM was added to the cells. […] The lysed cells were centrifuged at 12000×g for 10 min at 4° C. The protein in the supernatant was determined by bicinchoninic acid assay (Pierce, IL, USA) [Smith, P. K., Krohn, R. I., Hermanson, G. T., Mallia, A. K., Gartner, F. H., Provenzano, M. D., Fujimoto, E. K., Goeke, N. M., Olson, B. J., and Klenk, D. C. […] After electrophoresis, the proteins in the gel were electrophoretically transferred onto a polyvinylidene difluoride (PVDF) membrane at 100 mA for 80 min. The blotted membrane was fixed with 0.2% glutaraldehyde in PBS for 45 min at RT and treated for 5 min in boiling PBS. CTFβ (the C-terminal fragment of APP generated by BACE1) was detected by treatment of the membrane with 0.5 μg/ml of anti-Aβ N terminal 6E10 antibody (Signetlabs, Inc., MA, USA) followed by incubation with 0.2 μg/ml of anti-mouse antibody coupled with HRP (Amersham Biosciences Ltd. Uppsala, Sweden). The developed film was scanned and the density of CTFβ band was determined by Scion Image Program (Scion Corporation, MD, USA).

[4] = biological target: T1, Substrate W (SEVKMDAEFR, β-secretase cleavage site of wild type APP) (Homo sapiens, UniProt P05067); test: Binding of biotin-labeled Substrate W to immobilized complementary (HC) peptides; settings: biotin-labeled Sub W, peptide immobilized on plate
T1 construct: purchased Peptron, Inc; host or cells: chemical synthesis
Protocol: (§1) Complementary peptides (0.2, 2, 20, and 200 μM) were dissolved in phosphate buffered saline (PBS) (pH 7.4) and fixed to microtiter wells for 5 hr at 37° C. The wells were blocked with blocking buffer (3% BSA/PBS) for 1 hr at 37° C. Either N-terminally biotinylated Substrate W or M (20 μM) in blocking buffer was added and incubated for overnight at 4° C. Streptavidin-horseradish peroxidase in blocking buffer was added to detect resulting bound substrates. The plate was incubated for 2 hr at room temperature (RT), followed by addition of 3, 3′, 5,5′-tetramethyl-benzidine (TMB) as substrate for horseradish peroxidase for color reaction.
In particular, for Substrate W, complementary peptides (200 μM) dissolved in phosphate buffered saline (PBS) (pH 7.4) were chemically coupled to Reacti-Bind Maleic Anhydride Activated Polystyrene wells (Pierce Biotechnology, Inc.) for overnight at room temperature (RT). Remaining active sites of the plate were inactivated by adding ethanolamine (1 M) for 1 hr at RT. The wells were blocked with blocking buffer (3% BSA/PBS) for 1 hr at RT. N-terminally biotinylated Substrate W (20 μM) in blocking buffer was added and incubated for 3 hr at RT. Streptavidin-horseradish peroxidase in blocking buffer was added to detect resulting bound substrates. The plate was incubated for 2 hr at room temperature (RT), followed by addition of 3,3′,5,5′-tetramethyl-benzidine (TMB) as substrate for horseradish peroxidase for color reaction.
(§2) Reacti-Bind™ maleic anhydride-activated polystyrene plate (Pierce, IL, USA) was coated with 50 μl of HC peptide (200 μM in distilled water) by chemical coupling for 3 h at room temperature (RT) and washed three times with phosphate buffered saline (PBS) containing 0.05% tween 20 (PBST). The plate was blocked with blocking buffer (0.5% gelatin in PBS) for 1 h at RT. After discarding blocking buffer, biotinylated BACE1 substrates (200 μM) in blocking buffer was applied on the plate and incubated for 2.5 h at RT. Each well was washed three times with PBST. The bound biotinylated BACE1 substrates were detected by incubation with streptavidin-horseradish peroxidase (Str-HRP, 125 mU/ml in blocking buffer) for 2 h at RT. Color reaction was carried out with 50 μl of 3,3′,5,5′-Tetramethylbenzidine Liquid Substrate (Sigma-Aldrich, MO, USA). After stopping the reaction by addition of an equal volume of 1 N HCl, absorbance at 450 nm was read in an automated ELISA reader (EL 312e, Bio-Tek Instruments, VT, USA). All assays were carried out in duplicate.

[5] = tested on: Substrate M (SEVNLDAEFR, β-secretase cleavage site of APPsw); test: Binding of biotin-labeled Substrate M to immobilized complementary (HC) peptides; settings: biotin-labeled Sub M, peptide immobilized on plate
Protocol: as §1, §2

[6] = tested on: APP processing in HEK293-APP cells; test: Cell based assay of APP processing (βCTF, Western blot) in HEK293-APP cells; design: species or system human
Protocol: In the neuronal cells of the brain, APP is processed by α-secretase or β-secretase. To investigate the effects of the inhibitors on the cell, a cell based assay system was developed as described in FIG. 10. C-terminal fragment of APP remaining on the cell membrane was detected by Western blot. The resulting C-terminal fragments, αCTF or βCTF are further processed by γ-secretase. However, if the cells are treated with the γ-secretase inhibitor, this processing is blocked. As a result, αCTF or βCTF accumulate in the cell. If β-secretase inhibitor or APP inhibitor is added, this processing is blocked and βCTF disappears.
To test APP inhibitor activities in cells, three complementary peptides, c-Sub M, c-Sub MΔC6, and c-Sub MΔN1C1, which show high absorbance in binding test, were added to whole cell extracts of HEK293-APP cells (Lanes 2, 3, and 4 in FIG. 11). In addition, γ-secretase inhibitor and cholesterol were added to the cells to increase βCTF level. Commercially available peptide-based β-secretase inhibitor was included as control (Lane 6, FIG. 11). To detect the N-terminal fragment of β-amyloid which is a product of APP processing, 6E10 antibody was employed. […] Recently, it has been reported that the commercially available peptide-based inhibitor had to be linked to an oligoarginine transporter peptide to have inhibitory activity against cells. Therefore, mimetic approach is adopted to produce cell permeable analogs. (Chang et al. J. Neurochemistry 2004; 89:1409-1416).
After confirming the ability of the oligo-arginine coupled APP inhibitors to enter the cells, the inhibitors were applied to HEK293-APP cells overexpressing APP to test their inhibitory activities on APP processing. […] This inhibitor started to show significant inhibitory activity beginning from 0.1 μM (lower panel).

## NH2-(CH2)5-CO—Cys-Ile-Gln-Ile-His-Phe-NH2 ([Ahx]CIQIHF-NH2; N-terminus assumed; SMILES CC[C@H](C)[C@H](NC(=O)[C@H](CCC(N)=O)NC(=O)[C@@H](NC(=O)[C@H](CS)NC(=O)CCCCCN)[C@@H](C)CC)C(=O)N[C@@H](Cc1c[nH]cn1)C(=O)N[C@@H](Cc1ccccc1)C(N)=O) [AHX-c-Sub M ΔN3C1]
[1]; 6.25 μM, 9 h
  reduction of amount of Aβ released: about 70%
[1]
  inhibition of Aβ production / APP processing in the cells: reduced in a concentration dependent manner
[2]; f-Sub M, rhBACE1
  in vitro inhibitory activity relative to non-modified c-Sub M ΔN3C1: half
[3]
  forms of CTFβ whose accumulation is inhibited: both forms
  accumulation of cleavage product CTFβ: inhibited accumulation

## SEFCIHLHFR (SEFCIHLHFR-NH2) [c-Sub W]
[4]
  binding to Substrate W: bind
[5]
  binding to Substrate M: weak but significant binding
[2]; HC peptide 1 mM, f-Sub M 10 μM
  inhibitory activity for cleavage of f-Sub M by rhBACE1: higher inhibitory activity
[2]; rhBACE1
  inhibition of cleavage of Substrate M by β-secretase: inhibit cleavage
[2]
  inhibitory activity group on Substrate M cleavage: medium activity

## RLHLDLRLKA [Sub M-c]
[5]
  binding to Substrate M: do not bind and not
[2]; HC peptide 1 mM, f-Sub M 10 μM
  inhibitory activity for cleavage of f-Sub M by rhBACE1: not
[2]; rhBACE1
  inhibition of cleavage of Substrate M by β-secretase: do not inhibit cleavage

## SEFCIQI (SEFCIQI-NH2) [c-SubM ΔC3]
[2]
  inhibitory activity group on Substrate M cleavage: most active

## SEFCI (SEFCI-NH2) [c-SubM ΔC5]
[2]
  inhibitory activity group on Substrate M cleavage: medium activity

## β-secretase inhibitor IV [reference compound]
[1]; 2 μM
  inhibition of production of Aβ: about 90%
[3]
  forms of CTFβ whose accumulation is inhibited: only the nonphosphorylated form
  accumulation of cleavage product CTFβ: inhibited accumulation

## CIQIHF (CIQIHF-NH2) [c-Sub M ΔN3C1]
[2]
  inhibitory activity of deletion peptides on cleavage of Substrate M: considerable inhibitory activity
  inhibitory activity group on Substrate M cleavage: less activity
[2]; HC peptide 0.5 mM, f-Sub M 10 μM (Table 2)
  inhibitory activity for cleavage of f-Sub M by rhBACE1: without sacrificing the inhibitory activity too much
[2]; rhBACE1
  inhibition of cleavage of Substrate M by β-secretase: maintains much of the original activity of c-Sub M; also recorded: less active than longer HC peptide
[2]; substrate concentration 10 μM
  inhibitory activity relative to c-Sub M ΔN1C1: about one tenth

## RLHFYLRLKA [Sub W-c]
[4]
  binding to Substrate W: do not bind
[2]; rhBACE1
  inhibition of cleavage of Substrate M by β-secretase: do not inhibit cleavage

## c-Sub M-R9: c-Sub M coupled with oligo-arginine (9 Arginines), labeled with FITC using a linker AHX ({FITC′-Ahx}-SEFCIQIHFRRRRRRRRRR)
[2]; rhBACE1
  inhibition of cleavage of Substrate M by β-secretase: no inhibitory activity
[6]; 10 μM
  inhibitory activity on APP processing: no inhibitory activity
[6]; low concentration
  inhibitory activity on APP processing: some inhibitory activity

## SEFC [c-Sub MΔC6]
[6]; βCTF
  inhibitory activity on APP processing: none of the inhibitors tested showed inhibitory activity

## CIQI (CIQI-NH2) [C-Sub MΔN3C3]
[2]
  inhibitory activity of deletion peptides on cleavage of Substrate M: considerable inhibitory activity
  inhibitory activity group on Substrate M cleavage: medium activity

## c-Sub MΔN1C1-R9: c-Sub MΔN1C1 coupled with oligo-arginine (9 Arginines), labeled with FITC using a linker AHX ({FITC′-Ahx}-EFCIQIHFRRRRRRRRR)
[2]; rhBACE1
  inhibition of cleavage of Substrate M by β-secretase: less inhibitory activity
[6]; βCTF
  inhibitory activity on APP processing: inhibitory activity in a concentration dependent manner

## SEFCIQIHF [c-Sub M ΔC1]
[5]
  binding to Substrate M: relatively high binding activity
